In PubChem BioAssay (NCI):
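Dose response: 5 concentrations. Exposure: 48 h. Format: 96-well plates. Endpoint: linear interpolation; highest concentration if not reached. Definition used: TGI = concentration required for complete inhibition of growth.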

Assays:
Assay in all cases: NCI tumour cell line growth inhibition, 48 h
[1] = test system: A549 NSCLC
[2] = test system: SR leukemia
[3] = test system: HT29 colon
[4] = test system: HCT-116 colon
[5] = test system: ACHN renal
[6] = test system: KM12 colon
[7] = test system: IGROV1 ovarian
[8] = test system: OVCAR-5 ovarian
[9] = test system: DU-145 prostate
[10] = test system: SW-620 colon
[11] = test system: MDA-N
[12] = test system: EKVX NSCLC
[13] = test system: HCC-2998 colon
[14] = test system: MCF7 breast
[15] = test system: BT-549 breast
[16] = test system: SK-MEL-5 melanoma
[17] = test system: CAKI-1 renal
[18] = test system: SF-268 CNS
[19] = test system: OVCAR-3 ovarian
[20] = test system: MALME-3M melanoma
[21] = test system: CCRF-CEM leukemia
[22] = test system: HOP-62 NSCLC
[23] = test system: HL-60(TB) leukemia
[24] = test system: MDA-MB-231 breast
[25] = test system: MDA-MB-435
[26] = test system: RPMI-8226 leukemia
[27] = test system: U251 CNS
[28] = test system: HS 578T breast
[29] = test system: SF-295 CNS
[30] = test system: NCI/ADR-RES ovarian
[31] = test system: SNB-19 CNS
[32] = test system: NCI-H226 lung
[33] = test system: UACC-62 melanoma
[34] = test system: T-47D breast
[35] = test system: HCT-15 colon
[36] = test system: SK-OV-3 ovarian
[37] = test system: LOX IMVI melanoma
[38] = test system: COLO 205 colon
[39] = test system: 786-0 renal
[40] = test system: PC-3 prostate
[41] = test system: RXF 393 renal
[42] = test system: K-562 leukemia
[43] = test system: NCI-H522 lung
[44] = test system: SNB-75 CNS
[45] = test system: SK-MEL-28 melanoma
[46] = test system: UACC-257 melanoma
[47] = test system: SN12C renal
[48] = test system: NCI-H23 lung
[49] = test system: OVCAR-4 ovarian
[50] = test system: MOLT-4 leukemia
[51] = test system: TK-10 renal
[52] = test system: OVCAR-8 ovarian
[53] = test system: M14 melanoma
[54] = test system: SK-MEL-2 melanoma
[55] = test system: UO-31 renal
[56] = test system: SF-539 CNS
[57] = test system: NCI-H460 lung
[58] = test system: HOP-92 NSCLC

c1ccc(-c2cc(-c3ccncc3)cc(-c3ccncc3)n2)cc1
TGI [1]: > 100 µM | TGI [2]: > 100 µM | TGI [3]: > 100 µM | TGI [4]: > 100 µM | TGI [5]: > 100 µM | TGI [6]: > 100 µM | TGI [7]: > 100 µM | TGI [8]: > 100 µM | TGI [9]: > 100 µM | TGI [10]: > 100 µM | TGI [11]: > 100 µM | TGI [12]: > 100 µM | TGI [13]: > 100 µM | TGI [14]: > 100 µM | TGI [15]: > 100 µM | TGI [16]: > 100 µM | TGI [17]: > 100 µM | TGI [18]: > 100 µM | TGI [19]: > 100 µM | TGI [20]: > 100 µM | TGI [21]: > 100 µM | TGI [22]: > 100 µM | TGI [23]: > 100 µM | TGI [24]: > 100 µM | TGI [25]: > 100 µM | TGI [26]: > 100 µM | TGI [27]: > 100 µM | TGI [28]: > 100 µM | TGI [29]: > 100 µM | TGI [30]: > 100 µM | TGI [31]: > 100 µM | TGI [32]: > 100 µM | TGI [33]: > 100 µM | TGI [34]: > 100 µM | TGI [35]: > 100 µM | TGI [36]: > 100 µM | TGI [37]: > 100 µM | TGI [38]: > 100 µM | TGI [39]: > 100 µM | TGI [40]: > 100 µM | TGI [41]: > 100 µM | TGI [42]: > 100 µM | TGI [43]: > 100 µM | TGI [44]: 99.1 µM | TGI [45]: > 100 µM | TGI [46]: > 100 µM | TGI [47]: > 100 µM | TGI [48]: > 100 µM | TGI [49]: > 100 µM | TGI [50]: > 100 µM | TGI [51]: > 100 µM | TGI [52]: > 100 µM | TGI [53]: > 100 µM | TGI [54]: > 100 µM | TGI [55]: > 100 µM

COC(=O)[C@]1(C)CCC[C@]2(C)[C@@H](CCC(=O)C(C)C)[C@]3(C=O)O[C@@H]3C[C@H]21
TGI [1]: > 100 µM | TGI [2]: > 100 µM | TGI [56]: > 100 µM | TGI [3]: > 100 µM | TGI [4]: 57.7 µM | TGI [5]: 57.3 µM | TGI [6]: > 100 µM | TGI [8]: > 100 µM | TGI [9]: > 100 µM | TGI [10]: > 100 µM | TGI [11]: 75.1 µM | TGI [12]: > 100 µM | TGI [13]: > 100 µM | TGI [14]: > 100 µM | TGI [15]: 77.3 µM | TGI [16]: > 100 µM | TGI [17]: 31.9 µM | TGI [18]: > 100 µM | TGI [19]: > 100 µM | TGI [57]: > 100 µM | TGI [20]: > 100 µM | TGI [21]: > 100 µM | TGI [23]: > 100 µM | TGI [24]: > 100 µM | TGI [25]: 99.6 µM | TGI [27]: > 100 µM | TGI [28]: > 100 µM | TGI [29]: > 100 µM | TGI [30]: 90.4 µM | TGI [31]: > 100 µM | TGI [32]: > 100 µM | TGI [33]: > 100 µM | TGI [34]: 95.7 µM | TGI [35]: > 100 µM | TGI [36]: > 100 µM | TGI [37]: 92.3 µM | TGI [38]: > 100 µM | TGI [39]: > 100 µM | TGI [40]: > 100 µM | TGI [41]: 51.7 µM | TGI [42]: > 100 µM | TGI [43]: 46.6 µM | TGI [58]: > 100 µM | TGI [44]: 63.9 µM | TGI [45]: > 100 µM | TGI [46]: > 100 µM | TGI [47]: > 100 µM | TGI [48]: > 100 µM | TGI [49]: 87.3 µM | TGI [50]: > 100 µM | TGI [51]: > 100 µM | TGI [52]: > 100 µM | TGI [53]: > 100 µM | TGI [54]: > 100 µM | TGI [55]: 48.4 µM
